Read-outs that look alike come from different tables or passages of the source.
Tests used:
[1] = tested on: NO release in RAW264.7 cells; test: LPS-stimulated nitric oxide (NO) release in murine macrophage RAW264.7 cells (Griess reaction); type: cell-based; settings: Mus musculus, read-out: IC50 in inhibition of LPS-induced NO release
Protocol: LPS-Stimulated Nitric Oxide (NO) Release in Murine Macrophage RAW264.7 Cells
RAW264.7 cells was cultivated in DMEM supplemented with 10% FBS at 37° C. in a humidified atmosphere of 5% CO2. Cells in 96-well plates (0.1 ml, 3×10^5 cells/ml) were treated with the test compounds. After 30 min, all supernatants were removed and cells were treated with LPS (1 μg/ml) and the test compounds. After 24 hours, the level of nitrite was measured using Griess reaction G2930 (Promega Corp., Madison, Wis.) [see Bredt and Snyder, Ann Rev Biochem 63, 175-195 (1994)]. The test compounds dissolved in DMSO were diluted with culture medium to concentrations from 0.28 to 50,000 nM. The final concentration of DMSO was adjusted to 0.05% (v/v). The nitrite production was measured by spectrophotometry at 520 nm using EnVison 2104 Multilabel Reader (PerkinElmer, Inc., Waltham, Mass.). Each experiment was performed at least in triplicate and plotted using Prism.

[2] = tested on: mRNA transcript levels of cytokines IL-6, IL-1β and TNFα in RAW264.7 cells; test: LPS-induced transcriptional activation of cytokines in murine macrophage cells (quantitative PCR); type: cell-based; settings: Mus musculus
Protocol: LPS-Induced Transcriptional Activation of Cytokines in Murine Macrophage Cells RAW264.7 cells were cultivated with or without a treatment of the compounds as described above. Total RNA was isolated the cells using TRIzol reagent (Gibco, Grand Island, N.Y.) for homogenization. The concentration and integrity of RNA were determined by measuring absorbance at a 260 nm/280 nm ratio. Quantitative PCR was performed to determine the mRNA transcript levels of cytokines IL-6, IL-1β and TNFα with specific primers for these target genes. Each experiment was performed at least in triplicate, and plotted using Prim, and an IC50 value was calculated.

[3] = target: T1, first bromodomain (BrD1) of human BRD4 (Homo sapiens, UniProt O60885); test: Fluorescence anisotropy binding assay (competition with FITC-labeled MS417 probe); settings: FITC-MS417 probe 80 nM, PBS pH 7.4, 1 hour, 25° C., read-out: BRD4_1 IC50
T1 construct: the first bromodomain (BrD1) of human BRD4; poly-His (cleaved yes); made in house
In short: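 Competitive fluorescence anisotropy in PBS pH 7.4: 80 nM FITC-MS417 probe, 0.25 to 1 μM tag-cleaved BrD1, titrated unlabeled ligand, 1 hour at 25° C. IC50 values were fitted and converted to Ki using a corrected Cheng-Prusoff equation assuming one-site competition.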

BRD4_2 = target: T2, BRD4_2 (Homo sapiens, UniProt O60885); test: Fluorescence anisotropy binding assay (competition with FITC-labeled MS417 probe), BRD4_2; settings: FITC-MS417 probe 80 nM, PBS pH 7.4, 1 hour, 25° C.
T2 construct: contains two tandem bromodomains (BrD1 and BrD2)

[4] = Human, rat, and mouse microsome stability assay; type: in vitro ADME; settings: Sprague-Dawley (rat), CD1 (mouse), pH 7.4, rat, and mouse liver microsomes, 0.5 μM compound, 0.25 mg/mL microsomal protein, 37° C., read-out: intrinsic clearance Clint
Protocol: Human, Rat, and Mouse Microsome Stability Assay
Human, rat, and mouse liver microsomal incubations were carried out at 37° C. with a final incubation volume of 135 μL. Human liver microsomes (mixed gender, Catalog No. H2610) were obtained from XenoTech. Rat liver microsomes (male Sprague-Dawley, Catalog No. 452501) were obtained from BD Gentest. Mouse liver microsomes (male CD1, Catalog No. 452701) were obtained from BD Gentest. Incubations were conducted using a test compound (initially dissolved in DMSO at […] concentration) concentration of 0.5 μM and 0.25 mg/mL microsomal protein in 50 mM phosphate buffer at pH 7.4. Time zero samples were prepared by transferring 13.5 μL of compound-microsomal mix to the quench plates containing 45 μL of quench solution made of 10 nM Buspirone (Sigma) or 50 nM Carbutamide (Princeton Bio) as internal standard in 1:1 methanol:acetonitrile. An aliquot of 1.5 μL Nicotinamide adenine dinucleotide phosphate reduced tetrasodium salt (NADPH) was also added to the time zero plates. The reaction was then initiated by the addition of 13.5 μL NADPH to the compound-microsomal mix. At each of the remaining time points (5, 10, 15, 20, 30, 45 and 60 min) 15 μL of incubation mixture was added to 45 μL of quench solution. Samples were centrifuged for 15-30 minutes at 3800 rpm. Samples were then pooled for 6 per group. An aliquot of 60 μL of supernatant was transferred to 96-well plate, and a 5 μL aliquot was injected and analyzed by LC-MS (Applied Biosystems API 5500 QTrap).

[5] = tested on: IL-8 expression in human basal-like breast cancer cells (BLBCs); test: ELISA assay assessing IL-8 expression in BLBCs; type: cell-based; settings: read-out: IC50, inhibition of IL-8 expression
Protocol: ELISA Assay Assessing IL-8 Expression in BLBCs […] The following day upon cells adhesion to the plate bottom, all supernatants were carefully discarded followed by adding test compounds diluted in culturing medium. The test compounds dissolved in DMSO (Sigma-Aldrich Chemical Co., St. […] The final concentration of DMSO was adjusted to 0.05% (v/v). At the end of 24-hour incubation, all supernatants were carefully removed and stored at −80° C. if the subsequent steps would not be performed immediately. The Human IL-8 ELISA Ready-Set-Go! (2nd generation) is used (Catalog No. 88-8086) against the prepared samples. The samples along with the Standard Human IL-8 Recombinant Protein (prepared in duplicates in a 2-fold serial dilution from 250 pg/ml to 2 pg/ml) were incubated overnight for maximal sensitivity. The assay was measured by an absorption reading at 450 nm using EnVision 2104 Multilabel Reader (PerkinElmer, Inc., Waltham, Mass.). Each experiment was performed at least in duplicate and plotted using Prism. The curve fitting equation used was “log(inhibitor) vs. response variable slope (four parameters)”.

[6] = tested on: primary human AML stem- and progenitor cells; settings: cited from earlier work
[7] = RAW264.7 cells, LPS 1 μg/ml, 24 hours, nitrite by Griess reaction
[8] = RAW264.7 cells, LPS, quantitative PCR of mRNA transcript levels, read-out: IC50 in inhibition of transcriptional activation of the cytokines IL-6, IL-1β and TNFα
[9] = RAW264.7, read-out: IC50 in inhibition of transcriptional activation of the cytokines IL-6, IL-1β and TNFα
[10] = panel of human BLBC cells MDA-MB-435S, MDA-MB-231, BT-549, MDA-MB-157, HS578T, SUM1315, 24-hour incubation

SMILES | IC50 [1, 7] [µM] | melting point [°C] | IC50 [2, 8] [µM] | IC50 [3] [µM] | IC50 (BRD4_2) [µM] | microsomal CLint at 0.5 μM [4] [µL/min/mg] | other results
CC1=C(Nc2cc(C(=O)O)ccc2Cl)CCCC1=O [Example 01-36, 4-chloro-3((2-methyl-3-oxocyclohex-1-en-1-yl)amino)benzoic acid] | 0.1 to 5 | 232 to 235 | 0.1 to 5 | > 10 | > 10 |  | 
CC1=C(Nc2ccc3cc(C(=O)O)ccc3c2)CCCC1=O [Example 01-41, 6((2-methyl-3-oxocyclohex-1-en-1-yl)amino)-2-naphthoic acid] |  | 259 to 263 |  | 1 to 10 | 1 to 10 | 25 to 250 | 
CC1=C(Nc2ccc(C(=O)Nc3cccc4ccccc34)cc2Cl)CCC1=O [Example 04-15, 3-chloro-4-((2-methyl-3-oxocyclopent-1-en-1-yl)amino)-N-(naphthalen-1-yl)-benzamide] |  |  |  | < 1 | 1 to 10 |  | IC50 ([1]; RAW264.7, 24 h): 0.1 to 5 µM; IC50 [2, 9]: 0.1 to 5 µM
COc1ccccc1NC(=O)c1ccc(NC2=C(C)C(=O)CC2)c(Cl)c1 [Example 04-17, 3-chloro-N-(2-methoxyphenyl)-4-((2-methyl-3-oxocyclopent-1-en-1-yl)amino)benzamide] | 0.1 to 5 |  | 0.1 to 5 | < 1 | 1 to 10 |  | 
CC1=C(Nc2cc(C(=O)Nc3ccccc3C)ccc2Cl)CCC1=O [Example 04-89, 4-chloro-3-((2-methyl-3-oxocyclopent-1-en-1-yl)amino)-N-(o-tolyl)benzamide] |  |  |  | < 1 | 1 to 10 |  | IC50 ([1]; RAW264.7, 24 h): 0.1 to 5 µM; IC50 [2, 9]: 0.1 to 5 µM
CC1=C(Nc2cc(C(=O)Nc3ccccc3C)ccc2Cl)CCCC1=O [Example 04-91, 4-chloro-3-((2-methyl-3-oxocyclohex-1-en-1-yl)amino)-N-(o-tolyl)benzamide] | 0.1 to 5 |  | 0.1 to 5 | 1 to 10 | 1 to 10 |  | 
COc1ccc(NC(=O)Cc2cccc(NC3=C(C)C(=O)CCC3)c2)cc1 [Example 04-98, N-(4-methoxyphenyl)-2-(3-((2-methyl-3-oxocyclohex-1-en-1-yl)amino)phenyl)-acetamide] |  |  |  | > 10 | > 10 |  | IC50 ([1]; RAW264.7, 24 h): 0.1 to 5 µM; IC50 [2, 9]: 0.1 to 5 µM
CC1=C(Nc2ccc(C(=O)Nc3ccccc3C)cc2Cl)CCCC1=O [Example 05-15, 3-chloro-4-((2-methyl-3-oxocyclohex-1-en-1-yl)amino)-N-(o-tolyl)benzamide] | 0.1 to 5 |  | 0.1 to 5 | < 1 | 1 to 10 |  | 
CC1=C(Nc2cc(NS(=O)(=O)c3ccccc3C)ccc2Cl)CCC1=O [Example 05-57, N-(4-chloro-3-((2-methyl-3-oxocyclopent-1-en-1-yl)amino)phenyl)-2-methylbenzenesulfonamide] |  | 236 to 238 |  | < 1 | < 1 | 25 to 250 | IC50 ([5]; Homo sapiens, 24 h): 0.1 to 1 µM
CC1=C(Nc2cc(NS(=O)(=O)c3ccccc3C)ccc2Cl)CCCC1=O [Example 05-66, N-(4-chloro-3-((2-methyl-3-oxocyclohex-1-en-1-yl)amino)phenyl)-2-methylbenzenesulfonamide] |  | 246 to 248 |  | < 1 | < 1 | 25 to 250 | 
CC1=C(Nc2ccc(NS(=O)(=O)c3ccccc3C)cc2Cl)CCCC1=O [Example 05-68, N-(3-chloro-4-((2-methyl-3-oxocyclohex-1-en-1-yl)amino)phenyl)-2-methylbenzenesulfonamide] |  | 248 to 250 |  | < 1 | 1 to 10 | 25 to 250 | IC50 [5, 10]: 0.1 to 1 µM
CC1=C(Nc2cccc(NS(=O)(=O)c3ccccc3C)c2Cl)CCCC1=O [Example 05-70, N-(2-chloro-3-((2-methyl-3-oxocyclohex-1-en-1-yl)amino)phenyl)-2-methylbenzenesulfonamide] |  | 185 to 187 |  | < 1 | > 10 | 25 to 250 | IC50 [5, 10]: 0.1 to 1 µM
CC1=C(Nc2cccc(-c3cn(Cc4ccccc4)nn3)c2)CCC1=O [Example 06-04, 3-((3-(1-benzyl-1H-1,2,3-triazol-4-yl)phenyl)amino)-2-methylcyclopent-2-enone] | 0.1 to 5 |  | 0.1 to 5 | < 1 | 1 to 10 |  | 
Cc1sc2c(c1C)C(c1ccc(Cl)cc1)=N[C@@H](CC(=O)OC(C)(C)C)c1nnc(C)n1-2 [JQ1] |  |  |  |  |  |  | apoptosis in CD34+/CD38− and CD34+/CD38+ stem- and progenitor cells ([6]; all donors): induce apoptosis; growth-inhibition and apoptosis ([6]; primary human AML stem- and progenitor cells, including relapsed or refractory patients): leads to growth-inhibition and apoptosis
